# Paper PMC8596843, “Platinum Cyclooctadiene Complexes with Activity against Gram‐positive Bacteria” (Chemmedchem, 2021)
# Read-outs that look alike come from different tables or passages of the source.
# Key:
# [1] = test system: HEK-293 ATCC CRL-1573 human embryonic kidney cells; type: cell-based
# Description: As part of the CO‐ADD screening, all compounds that show any activity against a microbial strain are evaluated for their cytotoxicity against human embryonic kidney cells (HEK‐293) and for haemolysis against human red blood cells. None of the compounds tested for cytotoxicity (Pt1‐9 and Pd1) caused any significant cell death up to concentrations of 100 μM. […] We have also observed higher IC50 values for the methylated complexes Pt3 and Pt4 against HeLa cells in previous work.[16] […]
# inhibitors as positive control.
# Tamoxifen (Sigma T5648) was used
# as internal control on each plate.
# in a Neubauer haemocytometer. […]
# [2] = test system: B. subtilis ATCC 6051 type strain; assay: MIC in the presence of human serum (serum reversal); type: cell-based, Bacillus subtilis; conditions: Bacillus subtilis, ATCC6051, read-out: MIC in the presence of human serum
# Description: (§1) To obtain some initial insight into the apparent disparity between in vitro and in vivo results, we repeated the MIC experiments against four selected Gram‐positive strains in the presence of 10 % or 50 % human serum (Table S3). Pt1 and Pt2 maintained some antibacterial activity against B. subtilis in the presence of 10 % serum, but a complete loss of activity was observed against MRSA and GISA (50 % serum), and VRE (10 % serum). […] Systemic administration is therefore unlikely to be a suitable administration route for this class of compounds unless an alternative formulation that can prevent serum binding (e. g. by lipid or nanoparticle encapsulation) can be found. […] Further in vivo studies should therefore focus on more suitable disease models. […]
# (§2) Antibacterial minimum inhibitory concentration (MIC) assay
# (§3) concentration. (in-house screening)
# (§4) Bacto Laboratories 212322) at 37 °C overnight.
# (§5) The resultant mid-log phase cultures were diluted
# (§6) Gram-negative and Gram-positive bacteria, respectively.
# (§7) final concentration range of 0.8 – 100 µM.
# (§8) inhibitors as positive control. […]
# S. aureus NRS 17 GISA = assay: as above; type: cell-based, Staphylococcus aureus; conditions: Staphylococcus aureus, NRS17, read-out: MIC in the presence of human serum
# Description: as §1, §2, §3, §4, §5, §6, §7, §8
# [3] = test system: S. aureus ATCC 43300 MRSA; assay: as above; type: cell-based, Staphylococcus aureus; conditions: Staphylococcus aureus, read-out: MIC in the presence of human serum
# Description: as §1, §2, §3, §4, §5, §6, §7, §8
# [4] = test system: Staphylococcus aureus ATCC 25923, MSSA; assay: Antibacterial MIC assay, Gram-positive panel; type: cell-based; conditions: Staphylococcus aureus
# Description: (§9) Bis(dimethyl-η4)-((1Z,1'E,5Z,5'E)-(1,1'-bi(cyclooctadiene))diplatinum(II) (Pt14) Smiles: C1C=CCCC(=CC1)C1=CCCC=CCC1.C[Pt]C.C[Pt]C
# (§10) InChIKey: PHIWIZAHOBWKFJ-HPCBIOCFSA-N
# (§11) Link to selected data that was repeated to approve the identity of the compounds: https://dx.doi.org/10.14272/PHIWIZAHOBWKFJ-HPCBIOCFSA-N.1
# (§12) ATCC strains were sourced from the American Type Culture Collection and NRS strains from NARSA (Network on Antimicrobial Resistance in Staphylococcus aureus) via BEI Resources (www.beiresources.org), with clinical MSSA and MRSA isolates from Prof Graeme Nimmo, Queensland […]
# (§13) Health Central Pathology. […]
# as §2
# (§14) Compound Assay Plate Preparation: Compounds were dissolved in DMSO at 10mM (CO-ADD screening) or 4 mM (follow up screening) and were plated in a 2-fold dose response from 20 to 0.156 µM or 200 to 0.006 µM respectively, with a maximum of 0.5% or 1% DMSO, final in the assay […]
# (§15) plated in a 2-fold dose response from 200 to 0.006 µM, with a maximum of 1 % DMSO, final in the assay concentration. (in-house screening)
# (§16) For all the bacterial assays, each strain was cultured in Cation-adjusted Mueller Hinton broth (CAMHB; Bacto Laboratories 212322) at 37 °C overnight. A sample of each culture was then diluted 40-fold in fresh CAMHB and incubated at 37 °C for 1.5–3 h. The resultant mid-log phase cultures were diluted with CAMHB (CFU mL−1 measured by OD600), then added to each well of the compound-containing plates (384-well non-binding surface (NBS) plates; Corning CLS3640), giving a cell density of 5 × 10^5 CFU mL−1 and a total volume of 50 μL. Plates were covered and incubated at 37 °C for 18 h without shaking. Inhibition of bacterial growth was determined measuring absorbance at 600 nm (OD600), using media only as negative control and bacteria without inhibitors as positive control. MIC values were determined as the lowest concentration at which the growth was inhibited at ≥80%. Colistin sulfate (Sigma C4461) and vancomycin HCl (Sigma 861987) were used as internal controls on each plate for Gram-negative and Gram-positive bacteria, respectively. […]
# [5] = test system: Staphylococcus aureus VRS 1, VRSA (VanA); assay: Antibacterial MIC assay, Gram-positive panel; type: cell-based; conditions: Staphylococcus aureus, VRSA
# Description: as §9, §10, §11, §12, §13, §2, §14, §15, §16
# [6] = test system: E. faecium ATCC 51559 MDR, VRE; assay: MIC in the presence of human serum (serum reversal); type: cell-based, Enterococcus faecium; conditions: Enterococcus faecium, read-out: MIC in the presence of human serum
# Description: as §1, §2, §3, §4, §5, §6, §7, §8
# [7] = test system: Staphylococcus aureus ATCC 43300 (MRSA); assay: microbe, parasite or virus in culture; type: cell-based; conditions: Staphylococcus aureus
# Description: All compounds submitted to CO‐ADD are initially screened against five bacterial strains (Staphylococcus aureus (MRSA), E. coli, Klebsiella pneumoniae, Pseudomonas aeruginosa, Acinetobacter baumannii) and two fungal strains (Candida albicans, Cryptococcus neoformans) at a single concentration (32 μg/mL or 20 μM) performed as a high‐throughput primary screening.[[11], [17a]] Any compounds that show significant growth inhibition against any of the tested strains at this step are then evaluated in a dose‐response assay against these same strains. […]
# (§17) Smiles: C1C=CCCC(=CC1)C1=CCCC=CCC1.C[Pt]C.C[Pt]C […]
# as §12, §13, §2, §14, §15, §16
# [8] = test system: Bacillus subtilis ATCC 6051, type strain; assay: Antibacterial MIC assay, Gram-positive panel; type: cell-based; conditions: Bacillus subtilis
# Description: as §17, §12, §13, §2, §14, §15, §16
# [9] = test system: Enterococcus faecalis Clinical Isolate, VRE (VanB); assay: Antibacterial MIC assay, Gram-positive panel; type: cell-based; conditions: Enterococcus faecalis, VRE
# Description: as §17, §12, §13, §2, §14, §15, §16
# [10] = test system: Enterococcus faecalis ATCC 29212, control strain; assay: Antibacterial MIC assay, Gram-positive panel; type: cell-based; conditions: Enterococcus faecalis
# Description: as §17, §12, §13, §2, §14, §15, §16
# [11] = test system: Staphylococcus epidermidis NRS 60, VISE; assay: Antibacterial MIC assay, Gram-positive panel; type: cell-based; conditions: Staphylococcus epidermidis
# Description: as §17, §12, §13, §2, §14, §15, §16
# [12] = test system: Enterococcus faecium ATCC 51559, MDR, VRE (VanA); assay: Antibacterial MIC assay, Gram-positive panel; type: cell-based; conditions: Enterococcus faecium
# Description: as §17, §12, §13, §2, §14, §15, §16
# [13] = test system: Enterococcus faecium ATCC 35667, type strain; assay: Antibacterial MIC assay, Gram-positive panel; type: cell-based; conditions: Enterococcus faecium
# Description: as §17, §12, §13, §2, §14, §15, §16
# [14] = test system: Staphylococcus aureus NRS 17, GISA; assay: Antibacterial MIC assay, Gram-positive panel; type: cell-based; conditions: Staphylococcus aureus
# Description: as §17, §12, §13, §2, §14, §15, §16
# [15] = test system: Staphylococcus epidermidis ATCC 14990, type strain; assay: Antibacterial MIC assay, Gram-positive panel; type: cell-based; conditions: Staphylococcus epidermidis
# Description: as §17, §12, §13, §2, §14, §15, §16
# [16] = test system: Enterococcus faecium Clinical Isolate, VRE (VanA); assay: Antibacterial MIC assay, Gram-positive panel; type: cell-based; conditions: Enterococcus faecium, VRE
# Description: as §17, §12, §13, §2, §14, §15, §16
structure (smiles),measurement,setting,value
"CC/C(=C(\c1ccccc1)c1ccc(OCCN(C)C)cc1)c1ccccc1 [Tamoxifen, reference compound]",HEK‐293 CC50,[1],34.75–30.55
"CN[C@H](CC(C)C)C(=O)N[C@H]1C(=O)N[C@@H](CC(N)=O)C(=O)N[C@H]2C(=O)N[C@H]3C(=O)N[C@H](C(=O)N[C@H](C(=O)O)c4cc(O)cc(O)c4-c4cc3ccc4O)[C@H](O)c3ccc(c(Cl)c3)Oc3cc2cc(c3O[C@@H]2O[C@H](CO)[C@@H](O)[C@H](O)[C@H]2O[C@H]2C[C@](C)(N)[C@H](O)[C@H](C)O2)Oc2ccc(cc2Cl)[C@H]1O [Vancomycin, reference compound]",MIC,[2],0.5 µg/mL
same,MIC,S. aureus NRS 17 GISA,8 µg/mL
same,MIC,[3],0.5 to 1 µg/mL
same,MIC,"[4]; Table 2 panel, n=4",0.69 µg/mL
same,MIC,"[4]; Table S1, vancomycin control",1 µg/mL
same,MIC,"[5]; Table 2 panel, n=4",> 44.2 µg/mL
same,MIC,"[5]; Table S1, vancomycin control",> 64 µg/mL
same,MIC,[6],> 64 µg/mL
same,MIC,"[7]; Table 2 panel, n=2",0.35 to 0.69 µg/mL
same,MIC,"[7]; Table S1, vancomycin control",0.5 to 1 µg/mL
same,MIC,"[7]; read-out: MIC Sa, CO‐ADD screening, control antibiotic",1 µg/mL
same,MIC,"[8]; ATCC6051, Table 2 panel, n=2",0.35 µg/mL
same,MIC,"[8]; ATCC6051, Table S1, vancomycin control",0.5 µg/mL
same,MIC,"[9]; Table 2 panel, n=4",> 44.2 µg/mL
same,MIC,"[9]; Table S1, vancomycin control",64 µg/mL
same,MIC,"[10]; ATCC29212, Table 2 panel, n=4",1.38 to 2.76 µg/mL
same,MIC,"[10]; ATCC29212, Table S1, vancomycin control",2 to 4 µg/mL
same,MIC,"[11]; NRS60, Table 2 panel, n=4",2.76 µg/mL
same,MIC,"[11]; NRS60, Table S1, vancomycin control",4 µg/mL
same,MIC,"[12]; Table 2 panel, n=2",> 44.2 µg/mL
same,MIC,"[12]; Table S1, vancomycin control",> 64 µg/mL
same,MIC,"[13]; ATCC35667, Table 2 panel, n=4",0.35 µg/mL
same,MIC,"[13]; ATCC35667, Table S1, vancomycin control",0.5 µg/mL
same,MIC,"[14]; NRS17, Table 2 panel, n=2",5.52 µg/mL
same,MIC,"[14]; NRS17, Table S1, vancomycin control",8 µg/mL
same,MIC,"[15]; ATCC14990, Table 2 panel, n=4",0.69 to 1.38 µg/mL
same,MIC,"[15]; ATCC14990, Table S1, vancomycin control",1 to 2 µg/mL
same,MIC,"[16]; Table 2 panel, n=4",> 44.2 µg/mL
same,MIC,"[16]; Table S1, vancomycin control",> 64 µg/mL
